PMC9895451, “Genetic and pharmacologic inhibition of ALDH1A3 as a treatment of β-cell failure” (Nature Communications, 2023)

Molecular target: T1, ALDH1A3 (Homo sapiens, UniProt P47895)
T1 sequence (P47895 2-512): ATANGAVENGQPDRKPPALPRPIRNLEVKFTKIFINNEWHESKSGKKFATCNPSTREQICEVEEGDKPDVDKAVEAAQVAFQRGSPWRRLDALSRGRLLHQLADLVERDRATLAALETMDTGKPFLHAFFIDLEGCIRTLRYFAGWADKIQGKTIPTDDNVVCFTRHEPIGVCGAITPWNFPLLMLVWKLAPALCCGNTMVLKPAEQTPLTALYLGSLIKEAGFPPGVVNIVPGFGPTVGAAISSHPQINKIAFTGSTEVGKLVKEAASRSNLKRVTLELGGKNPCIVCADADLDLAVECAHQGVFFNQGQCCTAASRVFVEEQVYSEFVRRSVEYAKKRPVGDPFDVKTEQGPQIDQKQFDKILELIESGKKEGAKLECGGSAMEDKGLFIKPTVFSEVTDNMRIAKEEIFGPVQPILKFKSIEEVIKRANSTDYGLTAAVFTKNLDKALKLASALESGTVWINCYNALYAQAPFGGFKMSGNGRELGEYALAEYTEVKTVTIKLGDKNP
Assay: Aldefluor assay in A375 cells; also recombinant human ALDH1a3 in crude bacterial lysate (resazurin/diaphorase-coupled)
Format: cell-based

## CCc1cnccc1C(=O)Nc1cc2c(cc1F)NC(=O)CC2 [KOTX1]
  IC50: 5.1 nM
